Data reported in US4997926A, “Deaminase-stable anti-retroviral 2-halo-2',3'-dideoxy” (Scripps Clinic and Research Foundation, priority 1987, dated 1991).

Legend:
CEM T lymphoblasts = assay: in vitro; format: in vitro ADME, human
Experimental: (§1) Under the same condition, only about 2 percent of [2',3'-^3 H]-2'3'-dideoxyadenosine remained in the medium after 4 hours culture.
(§2) ^1 Human CEM T lymphoblasts at a density of 2 × 10^7
(§3) cells/ml were incubated for 4 hours at 37 degrees C. with either 3 uM
(§4) [8^3 H2-chloro- 2',3dideoxyadenosine, or 2 uM [2',3^3
(§5) H2',3dideoxyadenosine or 2 uM [2',3^3 H2',3dideoxyinosine. Then the
(§6) dideoxynucleosides in the cultures were quantitated after separation by
(§7) HPLC. In these studies, the intracellular dideoxynucleotide content after
(§8) The human T lymphoblastoid cell line, CCRF-CEM, and mutants deficient in either deoxycytidine kinase (clone AraC-8D), or deoxycytidine kinase plus adenosine kinase (clone AraC-8DM10-5) were obtained and propagated as described previously [Foley et al., (1965) Cancer, 18:552-529 and Hershfield et al., (1982) J. Biol. Chem., 257:6380-6386]. For metabolic studies, the cells were cultured in RPMI 1640 medium supplemented with 2 mM L-glutamine and 10 percent fetal bovine serum at a density of 2×10^7 cells/ml in the presence of radiolabelled dideoxynucleosides, as indicated earlier. Some cultures were pre-incubatedfor 30 minutes either with 5 uM 2'-deoxycoformycin or 50 uM coformycin. After 4 hours of incubation the cells were harvested by centrifugation.
(§9) The radioactive compounds in the culture medium were fractionated by thin layer chromatography. Ten microliter (ul) aliquots of medium were spotted directly on cellulose plates and developed with 1 M ammonium acetate pH 7.4. […] The respective spots were cut out and radioactivity was determined by liquid scintillation spectrometry. The identities of the spots were also confirmed by cochromatography of the radioactive counts with authentic compounds on a C18 uBondapak column, that was eluted as described above.

wild type CEM T cells = format: in vitro ADME, human
Experimental: Extracts of wild type CEM cells that had been incubated with 3 uM [8-^3 H]-2-chloro-2',3'-dideoxyadenosine for 4 hours were fractionated by ion exchange high performance liquid chromatography (HPLC). Detected radioactive peaks corresponded to the free deoxynucleoside and to the 5'-mono-, di- and tri-phosphates, respectively. The total intracellular 2-chloro-2',3'-dideoxynucleotide content was 30 pmols/10^8 cells. The identity of the peaks was confirmed by enzymatic dephosphorylation, and reverse phase HPLC in the presence of authentic 2-chloro-2',3'-dideoxyadenosine.
^1 Human CEM T cells, or variants deficient in either deoxycytidine
kinase, or deoxycytidine kinase plus adenosine kinase, were incubated at
density of 5 × 10^7 cells/ml in medium containing 3 uM [8^3
H2-chloro-2',3dideoxyadenosine. After 4 hours, the nucleotides in the
methanolsoluble extracts were determined after separation by HPLC, as
described in the Materials and Methods.
as §8
The cell pellets were washed with Hank's balanced salt solution at 4 degrees C., and extracted with 1 ml 60 percent methanol/water at -20 degrees C. for 10 minutes. Initial studies included 2',3'-dideoxyadenosine5'-triphosphate as an internal recovery marker. The nucleotides were fractionated by high performance liquid chromatography on an Whatman Partisil-10 SAX column, applying a gradient of zero to 100 percent buffer B in buffer A. Buffer A was 7 mM potassium phosphate pH 3.4. Buffer B was 0.5 M potassium phosphate, pH 3.4, one M KCl. The flow rate was 1.5 ml/minute, 1 minute fractions were collected. Buffer A was used alone for the first ten fractions after which elution with Buffer B began and was continued through fraction thirty, after which the eluting buffer was completely Buffer B. The nucleoside was eluted by about fraction six. The monophosphate eluted between about fractions fifteen and eighteen, the diphosphate between about fractions twenty-seven and thirty-two, and the triphosphate eluted between about fractions fifty-one and about sixty-five.

[1] = acid conditions; cited from earlier work
uninfected ATH8 cells = details: normal, read-out: Dose required to reduce the viability by 50 percent; cited from earlier work
in vitro = in vitro ADME, human; details: human, cem cell culture medium
Experimental: as §1, §2, §3, §4, §5, §6, §7, §8, §9

HIV in MDM cells = assay: Synthesis of HIV p24 (gag) antigen in monocyte derived macrophages (MDM), 3-day assay; format: cell-based; details: 0.1-100 uM
Description: The ability of AZT, ddC and ddA to inhibit synthesis of the p24 (gag) antigen of HIV in CEM and MDM cells was also examined. For CEM cells, the results for all three compounds were similar to those discussed in Mitsuya et al. (1987) Nature, 325:773-778 with ddC providing the most inhibitory effect at the lowest concentration, followed by AZT, followed by ddA in a 3-day assay.

[2] = tested on: HIV in PHA-stimulated lymphocytes; assay: HIV-infected PHA-stimulated lymphocytes, antigen ELISA of supernate, positive cultures; format: cell-based; details: 10 uM, ten cultures, ELISA OD490
Experimental: The activities of 2-halo-2',3'-dideoxyadenosine (2-F-,2-Cl- or 2-Br-ddA) derivatives were compared to those of 2-fluoro- and 2-chloro-2',3'-dideoxyinosine (2-F- and 2-Cl-ddI) and 2',3-dideoxyadenosine (ddA) against HIV-infected, antigen ELISA assay described herein.
The PHA-stimulated lymphocytes were suspended in media containing cell-free HIV, and were incubated overnight (about 18 hours). The cells were thereafter pelleted resuspended in a growth medium as pharmacologically acceptable carrier containing one of the above compounds at a 10 uM concentration, or with no added compound as a control, and plated at 10^5 cells per microculture; the medium was also supplemented with interleukin-2. The release of virus into the supernate was measured by ELISA at 4, 8 and 12 days, post-inoculation. Each microculture plate also contained ten virus-free cultures that served as further controls. Ten cell cultures were used for each compound.
Cultures were scored positive if the optical density in the ELISA (OD490) was greater than two standard deviations above the readings for the virus-free cultures. This method is adapted from that of McDougal et al. (1985) J. Immunol. 135:3151.

HIV in ATH8 cells = details: HIV-infected ATH8 cells; read-out: Concentration providing a 50 percent protection level against the cytopathic effect of HIV; cited from earlier work

In the case of `Nc1nc(Cl)nc2c1ncn2[C@H]1CC[C@@H](CO)O1` [2-chloro-2',3'-dideoxyadenosine], the Catabolism (CEM T lymphoblasts; Addition none, 4 hours, 37 degrees C., 2-3 uM) is reported as 40 pmols/hr 10^8 cells, the “deamination by CEM cells” value (CEM T lymphoblasts; radiolabelled compound, medium of CEM cell cultures) is reported as “did not significantly deaminate” and the “intracellular dideoxynucleotide content after 4 hours” value (wild type CEM T cells; CEM 2 × 10^7 cells/ml, 37 degrees C., 3 uM 2-Cl-ddA or 2 uM ddA) is reported as about 30 pmols/10^8 cells. The “Nucleotide Formed, Diphosphate” value (wild type CEM T cells; Wild Type CEM, 3 uM, 4 hours) was 2.8 pmols/10^8 cells/4 hrs, the “Nucleotide Formed, Triphosphate” value (wild type CEM T cells; Wild Type CEM, 3 uM, 4 hours) was 24.3 pmols/10^8 cells/4 hrs and the “total intracellular 2-chloro-2',3'-dideoxynucleotide content” value (wild type CEM T cells; Wild Type CEM, 3 uM, 4 hours) was 30 pmols/10^8 cells. For the same compound, the “Nucleotide Formed, Monophosphate” value (wild type CEM T cells; Wild Type CEM, 3 uM, 4 hours, 5 × 10^7 cells/ml) was 3.0 pmols/10^8 cells/4 hrs.

For `Nc1ncnc2c1ncn2[C@H]1CC[C@@H](CO)O1` [2',3'-dideoxyadenosine, reference compound], the “rate of acid hydrolysis relative to adenosine” value [1] is given as “about 40,000 times faster”, the CC50 (uninfected ATH8 cells) is given as over 500000 nM and the remaining at 4 h, 2 µM (in vitro) is given as about 2%. For the same compound, the “inhibition of p24 (gag) production from MDM cells” value (HIV in MDM cells) was “none of those compounds provided any inhibition”, the “2',3'-dideoxyadenosine uptake” value (wild type CEM T cells) was 20-30 pmols/10^8 cells and the “positive cultures on day 4” value [2] was “no positives”. The “positive cultures on day 8” value [2] was 100%, the “positive cultures on day 12” value [2] was 100% and the EC50 (HIV in ATH8 cells) was 2700 nM.
